# How the values were obtained:
# Format in all cases: cell-based
# [1] = test system: M. abscessus MABS9; assay: MIC (Table 8); conditions: Mycobacteroides abscessus
# [2] = test system: M. abscessus MABS11; assay: MIC (Table 8); conditions: Mycobacteroides abscessus
# [3] = test system: M. abscessus MABS7; assay: MIC (Table 8); conditions: Mycobacteroides abscessus
# [4] = test system: M. abscessus MABS9 biofilm; assay: MBEC assay (minimum biofilm eradication concentration); conditions: 18 h challenge
# Source text: (§1) In this study the MBEC assay was followed as described in the Innovotech Procedural Manual, version 2.1 with minor modifications to assess the antibiofilm activity of the antimicrobial compounds under investigation. The MBEC value refers to the Minimum Biofilm Eradication Concentration of each antimicrobial for each strain. The MBEC value is defined as the minimum antibiotic concentration where the optical density (OD) value at recovery is less than 10% of the control OD value and there is no growth observed with visual examination of the wells.
# (§2) Step 1: Inoculation. For resuscitation, all strains were streaked on TSA plates, except for the mycobacteria which were streaked on 7H10 media, from the frozen stocks, and grew overnight at 37° C. (Table 6). From the plate, one colony was picked for inoculation in organism specific medium (OSM) and grown in a shaker incubator at 37° C. at 225 RPM until mid-log phase (OD 0.2-0.8). At mid log phase the culture was diluted in OSM medium (Table 6) to an OD of 0.05. 150 μL of it were aliquoted in each corresponding well in a 96-well MBEC plate (inoculation plate). Subsequently, the MBEC plates were incubated static at 37° C. for the appropriate time for each species (Table 7). During incubation, biofilm formed on the pegs.
# (§3) Step 2: Challenge. Following incubation, the peg lid with the biofilm was washed twice in PBS and placed on a second 96-well plate with 200 μl of antibiotic dilutions (challenge plate). The challenge plate was then incubated at 37° C. for 18 h to allow exposure of the biofilm to antibiotics.
# (§4) Step 3: Recovery. In the final step, the peg lid (with the biofilm after treatment with the antibiotics) was washed again twice in PBS and placed on a third 96-well plate (recovery plate) with 200 μl growth medium in each well to allow growth of any bacterial cells resistant to antibiotics at any concentration. The recovery of resistant cells was assessed by an end-point measurement of the optical density at 600 nm (OD600) for each well with a plate reader (FIG. 4).
# [5] = test system: M. abscessus MABS7 biofilm; assay: as above; conditions: 18 h challenge
# Source text: as §1, §2, §3, §4
# [6] = test system: M. abscessus MABS11 biofilm; assay: as above; conditions: 18 h challenge
# Source text: as §1, §2, §3, §4
# [7] = test system: M. abscessus MABS2 biofilm; assay: as above; conditions: 18 h challenge
# Source text: as §1, §2, §3, §4
# [8] = test system: M. abscessus MABS1 biofilm; assay: as above; conditions: 18 h challenge
# Source text: as §1, §2, §3, §4
# [9] = test system: M. abscessus MABS4 biofilm; assay: as above; conditions: 18 h challenge
# Source text: as §1, §2, §3, §4
# [10] = test system: M. abscessus MABS4; assay: MIC (Table 8); conditions: Mycobacteroides abscessus
# [11] = test system: M. abscessus MABS1; assay: MIC (Table 8); conditions: Mycobacteroides abscessus
# [12] = test system: M. abscessus MABS2; assay: MIC (Table 8); conditions: Mycobacteroides abscessus
# [13] = test system: M. abscessus biofilm (six clinical isolates); assay: MBEC assay, summary over six clinical isolates; conditions: at high concentrations (amikacin, clarithromycin: apart from MABS4)
# Source text: as §1, §2, §3
# Step 3: Recovery. […] The recovery of resistant cells was assessed by an end-point measurement of the optical density at 600 nm (OD600) for each well with a plate reader (FIG. 4).
# This is possibly, in part, due to the variable clumping of the cells observed in the biofilm biomass on the pegs. The clumping of the cells also impacted the OD readings. […] For replicate experiments with variable results, the final MBEC values were determined based on the higher MBEC concentration observed among the replicates.
# [14] = test system: M. avium strain 104 (MAH 104) in THP-1 macrophages; assay: Mycobacterial survival (CFU) in infected THP-1 macrophages; conditions: 4-day and 7-day, drugs at MIC
# Experimental: THP-1 macrophages were differentiated with 50 ng/ml PMA for 24 hours, followed by 24 hours in media prior to infection. Differentiated THP-1 macrophages were either infected with M. avium strains or M. abscessus strains for 1 hour with an multiplicity of infection (MOI) of 5 or uninfected. Cells were washed twice, followed by 1 hour of antibiotic treatment with 200 μg/ml of amikacin to remove extracellular bacteria. After the antibiotic step, cells were washed once more and BisEDT (BIZ) or amikacin was added once to selected wells (see in vitro doses below).
# The treatments included: vehicle, amikacin, Soluble BisEDT (S Biz), Insoluble BisEDT (I Biz), and amikacin+BisEDT. The time points for sample preparation were 72 h for M. abscessus strains and 4- and 7-days post infection for M. avium strains. At the indicated timepoints cell media was removed and replaced with 400 ul of 0.1% triton x-100 in H2O for lysis. Wells were pipetted 25 times to disrupt cells then diluted and plated for CFU enumeration.
MIC [1] [mg/L],MIC [2] [mg/L],MIC [3] [mg/L],MIC [10] [mg/L],MIC [11] [mg/L],MIC [12] [mg/L],SMILES,MBEC [4] [µg/mL],MBEC [5] [µg/mL],MBEC [6],MBEC [7] [µg/mL],MBEC [8] [µg/mL],MBEC [9],"biofilm susceptibility, in words [13]","mycobacterial survival (CFU, bacterial load) in THP-1 macrophages, in words [14]",MBEC ([9]; listed as clarithromycin) [µg/mL]
16,8,16,8,8,1,C[C@@H](O)[C@H]1C(=O)N2C(C(=O)O)=C(SCCN=CN)C[C@H]12 [Imipenem],>64,>64,>64 µg/mL,>16,>32,>64 µg/mL,,,
32,16,16,16,8,8,CO[C@@]1(NC(=O)Cc2cccs2)C(=O)N2C(C(=O)O)=C(COC(N)=O)CS[C@@H]21 [Cefoxitin],>256,>128,>256 µg/mL,>128,>128,>128 µg/mL,resistance,,
,,,,,,C1C[S][Bi]([S]CC[S][Bi]2[S]CC[S]2)[S]1 [BisEDT in DMSO],,,,,,,,bacteriostatic effect,

SMILES,MIC [1] [mg/L],MIC [2] [mg/L],MIC [3] [mg/L],MIC [10] [mg/L],MIC [11] [mg/L],MIC [12] [mg/L],MBEC [4] [µg/mL],MBEC [5] [µg/mL],MBEC [6],MBEC [7] [µg/mL],MBEC [8] [µg/mL],MBEC [9],"biofilm susceptibility, in words [13]","mycobacterial survival (CFU, bacterial load) in THP-1 macrophages, in words [14]",MBEC ([9]; listed as clarithromycin) [µg/mL]
CC[C@H]1OC(=O)[C@H](C)[C@@H](O[C@H]2C[C@@](C)(OC)[C@@H](O)[C@H](C)O2)[C@H](C)[C@@H](O[C@@H]2O[C@H](C)C[C@H](N(C)C)[C@H]2O)[C@](C)(OC)C[C@@H](C)C(=O)[C@H](C)[C@@H](O)[C@]1(C)O [Clarithromycin],0.25,2,0.5,0.125,16,4,>8,>8,>=32 μg/mL,>32,>32,<=4 μg/mL,resistance,,4

# — patent US20250090576A1, “METHODS FOR TREATING NONTUBERCULOUS MYCOBACTERIA DISEASES” (Microbion Corporation, priority 2022, published 2025)
